From PubChem BioAssay AID330 (DTP/NCI, 2004)
Where “and” joins values, the source holds several entries; their conditions need not be identical. Identical values can stand only once. Inconclusive results and toxic doses are left out.

Test system: P388 leukemia ip, CD2F1 mice, survival T/C
Assay: NCI In Vivo Anticancer Drug Screen. Data for tumor model P388 Leukemia (intraperitoneal) in CD2F1 (CDF1) mice
Conditions: endpoint: median survival time, higher = longer survival
Summary of the method: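 Mice carrying the transplanted tumor received test compound or vehicle. Survival was recorded in each group, and the value is the treated-group measurement divided by that of the vehicle-treated control group.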

[1] = dose: 60.0 mg/kg/injection, schedule: Q01DX005 (ip), vehicle: saline with Tween-80
[2] = dose: 120.0 mg/kg/injection, schedule: Q01DX005 (ip), vehicle: saline with Tween-80
[3] = dose: 240.0 mg/kg/injection, schedule: Q01DX005 (ip), vehicle: saline with Tween-80
[4] = dose: 100.0 mg/kg/injection, schedule: Q01DX009 (ip), vehicle: Klucel (hydroxypropylcellulose) (HPC)
[5] = dose: 100.0 mg/kg/injection, schedule: Q04DX003 (ip), vehicle: saline with Tween-80
[6] = dose: 200.0 mg/kg/injection, schedule: Q04DX003 (ip), vehicle: saline with Tween-80
[7] = dose: 400.0 mg/kg/injection, schedule: Q04DX003 (ip), vehicle: saline with Tween-80
[8] = dose: 50.0 mg/kg/injection, schedule: Q01DX005 (ip), vehicle: saline with Tween-80
[9] = dose: 100.0 mg/kg/injection, schedule: Q01DX005 (ip), vehicle: saline with Tween-80
[10] = dose: 200.0 mg/kg/injection, schedule: Q01DX005 (ip), vehicle: saline with Tween-80
[11] = dose: 100.0 mg/kg/injection, schedule: Q01DX009 (ip), vehicle: saline with Tween-80
[12] = dose: 200.0 mg/kg/injection, schedule: Q01DX009 (ip), vehicle: saline with Tween-80
[13] = dose: 25.0 mg/kg/injection, schedule: Q01DX001 (ip), vehicle: saline with Tween-80
[14] = dose: 50.0 mg/kg/injection, schedule: Q01DX001 (ip), vehicle: saline with Tween-80
[15] = dose: 100.0 mg/kg/injection, schedule: Q01DX001 (ip), vehicle: saline with Tween-80
[16] = dose: 50.0 mg/kg/injection, schedule: Q01DX009 (ip), vehicle: saline with Tween-80

CCN(CC)c1ccc2cc(C(=O)c3cccs3)c(=O)oc2c1
T/C [1]: 104 % of control | T/C [2]: 96 % of control | T/C [3]: 103 % of control

CCCCCCC(=O)/C=C/c1cc(Cl)cc(Cl)c1OCOC
T/C [4]: 116 % of control | T/C (dose: 200.0 mg/kg/injection, schedule: Q01DX009 (ip), vehicle: Klucel (hydroxypropylcellulose) (HPC)): 100 % of control

CCCCC/C(C=O)=C\c1ccccc1
T/C [5]: 118 % of control | T/C [6]: 100 % of control | T/C [7]: 109 % of control

COP(=O)(CCC1OCCO1)OC
T/C [8]: 104 % of control | T/C [9]: 104 % of control | T/C [10]: 99 % of control

Fc1ccc(CSc2ncnc3nc[nH]c23)cc1
T/C [11]: 90 % of control | T/C [12]: 100 % of control | T/C (dose: 400.0 mg/kg/injection, schedule: Q01DX009 (ip), vehicle: saline with Tween-80): 100 % of control

CNc1ccc(C=C2c3ccccc3-c3ccccc32)cc1
T/C (dose: 12.5 mg/kg/injection, schedule: Q01DX001 (ip), vehicle: saline with Tween-80): 102 % of control | T/C [13]: 105 % of control | T/C [14]: 112 % of control | T/C [15]: 106 % of control

COc1cc(/C=N/N2CC(=O)N(c3ccccc3)CC2=O)cc(OC)c1
T/C (dose: 6.25 mg/kg/injection, schedule: Q01DX005 (ip), vehicle: saline with Tween-80): 97 % of control | T/C (dose: 12.5 mg/kg/injection, schedule: Q01DX005 (ip), vehicle: saline with Tween-80): 100 % of control | T/C (dose: 25.0 mg/kg/injection, schedule: Q01DX005 (ip), vehicle: saline with Tween-80): 100 % of control

C(=C1/SC(c2ccccc2)=NC1c1ccccc1)/c1ccccc1 (stereo not given)
T/C [16]: 92 % of control | T/C [11]: 88 % of control | T/C [12]: 96 % of control

CC(C)(C)N1CC(O)C1
T/C (dose: 50.0 mg/kg/injection, schedule: Q01DX001 (ip), vehicle: saline): 100 % of control | T/C (dose: 100.0 mg/kg/injection, schedule: Q01DX001 (ip), vehicle: saline): 98 % of control | T/C (dose: 200.0 mg/kg/injection, schedule: Q01DX001 (ip), vehicle: saline): 93 % of control

CCN(CC)CCNC(=O)Cc1cc(O)c2c(c1O)C(=O)c1ccccc1C2=O
T/C [5]: 106 % of control | T/C [6]: 106 % of control | T/C [7]: 106 % of control

O=[N+]([O-])c1nc(Br)n[nH]1
T/C (dose: 100.0 mg/kg/injection, schedule: Q04DX002 (ip), vehicle: water): 107 % of control | T/C (dose: 200.0 mg/kg/injection, schedule: Q04DX002 (ip), vehicle: water): 106 % of control

CCOC(=O)N1C(=O)C2C3C=CC(C2C1=O)C1C2C(=O)N(C(=O)OCC)C(=O)C2C31 (stereo not given)
T/C (dose: 25.0 mg/kg/injection, schedule: Q01DX009 (ip), vehicle: Klucel (hydroxypropylcellulose) (HPC)): 116 % of control and 124 % of control | T/C (dose: 50.0 mg/kg/injection, schedule: Q01DX009 (ip), vehicle: Klucel (hydroxypropylcellulose) (HPC)): 121 % of control | T/C [4]: 152 % of control

Nc1nnc(Cc2cccc3ccccc23)o1
T/C [1]: 109 % of control | T/C [2]: 106 % of control | T/C [3]: 103 % of control

Cn1c(SCC(=O)O)nnc1C1CCC(=O)N1Cc1ccccc1 (stereo not given)
T/C [1]: 110 % of control | T/C [2]: 103 % of control | T/C [3]: 98 % of control

CCCCC(CC)COCCCNCC(=O)O (stereo not given)
T/C (dose: 60.0 mg/kg/injection, schedule: Q01DX005 (ip), vehicle: saline): 102 % of control | T/C (dose: 120.0 mg/kg/injection, schedule: Q01DX005 (ip), vehicle: saline): 107 % of control

CCOP(O)(=S)OCC.[Fe]
T/C [13]: 89 % of control | T/C (dose: 33.0 mg/kg/injection, schedule: Q01DX001 (ip), vehicle: saline with Tween-80): 96 % of control | T/C [14]: 94 % of control | T/C (dose: 50.0 mg/kg/injection, schedule: Q04DX003 (ip), vehicle: saline): 97 % of control | T/C (dose: 75.0 mg/kg/injection, schedule: Q01DX001 (ip), vehicle: saline with Tween-80): 90 % of control and 95 % of control | T/C [15]: 90 % of control | T/C (dose: 100.0 mg/kg/injection, schedule: Q04DX003 (ip), vehicle: saline): 101 % of control | T/C (dose: 200.0 mg/kg/injection, schedule: Q04DX003 (ip), vehicle: saline): 100 % of control | T/C (dose: 400.0 mg/kg/injection, schedule: Q04DX003 (ip), vehicle: saline): 90 % of control

Nc1ccc(Cl)cn1
T/C [16]: 90 % of control | T/C [11]: 99 % of control | T/C [12]: 99 % of control

Nc1ncnc2nc(/N=N/SCCC(=O)O)[nH]c12
T/C [8]: 108 % of control | T/C [9]: 103 % of control | T/C [10]: 100 % of control

CC(CN(C)C)C(/C=C/c1ccc(Cl)c(Cl)c1)=N\Nc1ccccc1 (stereo not given)
T/C [1]: 87 % of control | T/C [2]: 93 % of control | T/C [3]: 87 % of control

O=C1CS(=O)(=O)C(c2cccc(F)c2)N1N1C(=O)CS(=O)(=O)C1c1cccc(F)c1 (stereo not given)
T/C [1]: 92 % of control | T/C [2]: 95 % of control | T/C [3]: 94 % of control

BrC1C2CC/C=C\CCC12 (stereo not given)
T/C [1]: 100 % of control | T/C [2]: 104 % of control | T/C [3]: 104 % of control

Cn1c2ccccc2c2nnc(N/N=C/c3ccccn3)nc21
T/C (dose: 100.0 mg/kg/injection, schedule: Q04DX002 (ip), vehicle: saline with Tween-80): 98 % of control and 111 % of control and 113 % of control | T/C (dose: 200.0 mg/kg/injection, schedule: Q04DX002 (ip), vehicle: saline with Tween-80): 106 % of control and 113 % of control and 114 % of control | T/C (dose: 400.0 mg/kg/injection, schedule: Q04DX002 (ip), vehicle: saline with Tween-80): 106 % of control and 113 % of control | T/C (dose: 800.0 mg/kg/injection, schedule: Q04DX002 (ip), vehicle: saline with Tween-80): 104 % of control and 114 % of control

CCS/C(C#N)=C(/OC)c1ccccc1Cl
T/C [16]: 89 % of control | T/C [11]: 94 % of control

CCCCCCCCCCNCCSSCc1ccccc1
T/C (dose: 12.5 mg/kg/injection, schedule: Q04DX002 (ip), vehicle: Klucel (hydroxypropylcellulose) (HPC)): 100 % of control | T/C (dose: 25.0 mg/kg/injection, schedule: Q04DX002 (ip), vehicle: Klucel (hydroxypropylcellulose) (HPC)): 100 % of control | T/C (dose: 50.0 mg/kg/injection, schedule: Q04DX002 (ip), vehicle: Klucel (hydroxypropylcellulose) (HPC)): 109 % of control | T/C (dose: 100.0 mg/kg/injection, schedule: Q04DX002 (ip), vehicle: Klucel (hydroxypropylcellulose) (HPC)): 105 % of control

Cn1c2c(c(=O)c3c4c(=O)c5c([nH]c4ccc31)CCCC5)CCCC2
T/C [5]: 100 % of control | T/C [6]: 94 % of control | T/C [7]: 86 % of control

Cn1c(N)c2c(=O)n(C)c3c(c2c(C#N)c1=O)CCSc1ccccc1-3
T/C [8]: 94 % of control | T/C [9]: 93 % of control

N#CCCSC(=S)N1CCN(C(=S)SCCC#N)C1=O
T/C [8]: 92 % of control | T/C [9]: 87 % of control | T/C [10]: 92 % of control

COC(=O)c1ccccc1NC(Cc1ccccc1)=NC(C)(C)C
T/C [16]: 86 % of control | T/C [11]: 99 % of control

CCCCC(CC)C(=O)OCCCNC(=O)C(C)OC(=O)C(CC)CCCC (stereo not given)
T/C [8]: 104 % of control | T/C [9]: 87 % of control | T/C [10]: 104 % of control
